Assay results: PubChem BioAssay AID2060504 (Molecular Pharmacology Branch, DTP, NCI, 2025)
pIC50: −log10 of the molar value.

Test system: 636577-100-R-J1-PDC complex spheroid viability
Test: Anticancer human tumor 636577-100-R-J1-PDC patient-derived endometrial adenocarcinoma cell line growth inhibition [GQUAD]
Conditions: for pIC50: curve of first compound; for viability, T/C: stronger effect = lower value; active means viability on the fitted dose curve at most 10% of control; inactive means the rest
In short: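 Viability of tumor cells grown as complex spheroids with endothelial and stromal cells, exposed to drug combinations. Top concentration at or near clinical Cmax (else 10 microM), diluted in half-log increments.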

[1] = second compound 0.0316 µM, first compound 0.0316 µM
[2] = second compound 0.0316 µM, first compound 0.1 µM
[3] = second compound 0.0316 µM, first compound 0.316 µM
[4] = second compound 0.0316 µM, first compound 1 µM
[5] = second compound 0.0316 µM, first compound 3.16 µM
[6] = second compound 0.0316 µM, first compound 10 µM
[7] = second compound 0.1 µM, first compound 0.0316 µM
[8] = second compound 0.1 µM, first compound 0.1 µM
[9] = second compound 0.1 µM, first compound 0.316 µM
[10] = second compound 0.1 µM, first compound 1 µM
[11] = second compound 0.1 µM, first compound 3.16 µM
[12] = second compound 0.1 µM, first compound 10 µM
[13] = second compound 0.316 µM, first compound 0.0316 µM
[14] = second compound 0.316 µM, first compound 0.1 µM
[15] = second compound 0.316 µM, first compound 0.316 µM
[16] = second compound 0.316 µM, first compound 1 µM
[17] = second compound 0.316 µM, first compound 3.16 µM
[18] = second compound 0.316 µM, first compound 10 µM
[19] = second compound 1 µM, first compound 0.0316 µM
[20] = second compound 1 µM, first compound 0.1 µM
[21] = second compound 1 µM, first compound 0.316 µM
[22] = second compound 1 µM, first compound 1 µM
[23] = second compound 1 µM, first compound 3.16 µM
[24] = second compound 1 µM, first compound 10 µM
[25] = second compound 3.16 µM, first compound 0.0316 µM
[26] = second compound 3.16 µM, first compound 0.1 µM
[27] = second compound 3.16 µM, first compound 0.316 µM
[28] = second compound 3.16 µM, first compound 1 µM
[29] = second compound 3.16 µM, first compound 3.16 µM
[30] = second compound 3.16 µM, first compound 10 µM
[31] = second compound 10 µM, first compound 0.0316 µM
[32] = second compound 10 µM, first compound 0.1 µM
[33] = second compound 10 µM, first compound 0.316 µM
[34] = second compound 10 µM, first compound 1 µM
[35] = second compound 10 µM, first compound 3.16 µM
[36] = second compound 10 µM, first compound 10 µM
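Further: viability read after seven days of drug exposure.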
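Wherever viability, T/C is given: luminescence signal used as a proxy for viable cells; 100% = DMSO vehicle control wells.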

C#Cc1c(F)ccc2cc(O)cc(-c3ncc4c(N5CC6CCC(C5)N6)nc(OCC56CCCN5CC(F)C6)nc4c3F)c12 (stereo not drawn) + CN(C)c1ccc(Nc2c3ccc(NC(=O)CCN4CCCC4)cc3nc3cc(NC(=O)CCN4CCCC4)ccc23)cc1
active: viability, T/C [31] 5.81% | viability, T/C [32] 4.81% | viability, T/C [33] 4.89% | viability, T/C [34] 3.78% | viability, T/C [35] 3.21% | viability, T/C [36] 0.66%
5.22: pIC50 (second compound 0.0316 µM)
> 7.50: pIC50 (second compound 3.16 µM) | pIC50 (second compound 10 µM)
inactive: viability, T/C [1] 109% | viability, T/C [2] 84.1% | viability, T/C [3] 95.4% | viability, T/C [4] 69.9% | viability, T/C [5] 72.2% | viability, T/C [6] 37.2% | viability, T/C [7] 98.6% | viability, T/C [8] 94.3% | viability, T/C [9] 85.6% | viability, T/C [10] 68% | viability, T/C [11] 49.4% | viability, T/C [12] 42.5% | viability, T/C [13] 93% | viability, T/C [14] 99.3% | viability, T/C [15] 85.7% | viability, T/C [16] 62.1% | viability, T/C [17] 59.1% | viability, T/C [18] 34.9% | viability, T/C [19] 61% | viability, T/C [20] 75.2% | viability, T/C [21] 70.5% | viability, T/C [22] 61.8% | viability, T/C [23] 46.5% | viability, T/C [24] 29.8% | viability, T/C [25] 41.7% | viability, T/C [26] 37.2% | viability, T/C [27] 38% | viability, T/C [28] 36.4% | viability, T/C [29] 22.7% | viability, T/C [30] 15.7%
5.49: pIC50 (second compound 0.1 µM)
5.61: pIC50 (second compound 1 µM)
5.41: pIC50 (second compound 0.316 µM)

CCCS(=O)(=O)Nc1ccc(F)c(C(=O)c2c[nH]c3ncc(-c4ccc(Cl)cc4)cc23)c1F + CN(C)c1ccc(Nc2c3ccc(NC(=O)CCN4CCCC4)cc3nc3cc(NC(=O)CCN4CCCC4)ccc23)cc1
active: viability, T/C [31] 5.58% | viability, T/C [32] 6.42% | viability, T/C [33] 6.13% | viability, T/C [34] 6.09% | viability, T/C [35] 4.83% | viability, T/C [36] 1.82%
5.18: pIC50 (second compound 0.316 µM) | pIC50 (second compound 1 µM)
5.17: pIC50 (second compound 0.0316 µM)
inactive: viability, T/C [1] 101% | viability, T/C [2] 98.1% | viability, T/C [3] 118% | viability, T/C [4] 59.4% | viability, T/C [5] 87.2% | viability, T/C [6] 35.4% | viability, T/C [7] 96.4% | viability, T/C [8] 79.3% | viability, T/C [9] 89.1% | viability, T/C [10] 73.1% | viability, T/C [11] 80.4% | viability, T/C [12] 32.8% | viability, T/C [13] 82.4% | viability, T/C [14] 83% | viability, T/C [15] 80.2% | viability, T/C [16] 69.2% | viability, T/C [17] 74.9% | viability, T/C [18] 37.6% | viability, T/C [19] 79.3% | viability, T/C [20] 69.8% | viability, T/C [21] 78.9% | viability, T/C [22] 89.8% | viability, T/C [23] 77.7% | viability, T/C [24] 34.5% | viability, T/C [25] 35.7% | viability, T/C [26] 47.9% | viability, T/C [27] 47.1% | viability, T/C [28] 43% | viability, T/C [29] 40.6% | viability, T/C [30] 18.5%
> 7.50: pIC50 (second compound 3.16 µM) | pIC50 (second compound 10 µM)
5.19: pIC50 (second compound 0.1 µM)

Cc1[nH]c2ccccc2c1CCNCc1ccc(/C=C/C(=O)NO)cc1 + CN(C)c1ccc(Nc2c3ccc(NC(=O)CCN4CCCC4)cc3nc3cc(NC(=O)CCN4CCCC4)ccc23)cc1
inactive: viability, T/C (second compound 0.0316 µM, first compound 0.000999 µM) 84% | viability, T/C (second compound 0.0316 µM, first compound 0.00316 µM) 49.5% | viability, T/C (second compound 0.0316 µM, first compound 0.00999 µM) 40.6% | viability, T/C [1] 15.7% | viability, T/C (second compound 0.0316 µM, first compound 0.0999 µM) 8.74% | viability, T/C (second compound 0.1 µM, first compound 0.000999 µM) 80.7% | viability, T/C (second compound 0.1 µM, first compound 0.00316 µM) 56.5% | viability, T/C (second compound 0.1 µM, first compound 0.00999 µM) 36.1% | viability, T/C [7] 14.2% | viability, T/C (second compound 0.316 µM, first compound 0.000999 µM) 62.3% | viability, T/C (second compound 0.316 µM, first compound 0.00316 µM) 62.5% | viability, T/C (second compound 0.316 µM, first compound 0.00999 µM) 30.4% | viability, T/C [13] 14% | viability, T/C (second compound 0.316 µM, first compound 0.0999 µM) 8.97% | viability, T/C [15] 9.2% | viability, T/C (second compound 1 µM, first compound 0.000999 µM) 65.4% | viability, T/C (second compound 1 µM, first compound 0.00316 µM) 48.6% | viability, T/C (second compound 1 µM, first compound 0.00999 µM) 31.5% | viability, T/C [19] 13.9% | viability, T/C (second compound 1 µM, first compound 0.0999 µM) 9.95% | viability, T/C (second compound 3.16 µM, first compound 0.000999 µM) 37.1% | viability, T/C (second compound 3.16 µM, first compound 0.00316 µM) 29.2% | viability, T/C (second compound 3.16 µM, first compound 0.00999 µM) 20.2% | viability, T/C [25] 15.6% | viability, T/C (second compound 3.16 µM, first compound 0.0999 µM) 10.3% | viability, T/C [27] 10.9%
8.42: pIC50 (second compound 0.0316 µM)
8.34: pIC50 (second compound 0.1 µM)
active: viability, T/C [3] 12.3% | viability, T/C (second compound 0.1 µM, first compound 0.0999 µM) 8.43% | viability, T/C [9] 8.87% | viability, T/C [21] 10.1% | viability, T/C (second compound 10 µM, first compound 0.000999 µM) 6.06% | viability, T/C (second compound 10 µM, first compound 0.00316 µM) 7.54% | viability, T/C (second compound 10 µM, first compound 0.00999 µM) 7.16% | viability, T/C [31] 6.21% | viability, T/C (second compound 10 µM, first compound 0.0999 µM) 6.38% | viability, T/C [33] 3.97%
8.50: pIC50 (second compound 1 µM)
8.32: pIC50 (second compound 0.316 µM)
> 9.00: pIC50 (second compound 3.16 µM) | pIC50 (second compound 10 µM)

O=C(NO)c1cnc(N2CCN(S(=O)(=O)c3ccc4ccccc4c3)CC2)nc1 + CN(C)c1ccc(Nc2c3ccc(NC(=O)CCN4CCCC4)cc3nc3cc(NC(=O)CCN4CCCC4)ccc23)cc1
inactive: viability, T/C [1] 30.3% | viability, T/C [2] 14.9% | viability, T/C [7] 34.5% | viability, T/C [8] 15.9% | viability, T/C [13] 30.4% | viability, T/C [14] 18.8% | viability, T/C [19] 26.3% | viability, T/C [20] 15.7% | viability, T/C [25] 25.1% | viability, T/C [26] 15.6%
> 7.50: pIC50 (second compound 0.0316 µM) | pIC50 (second compound 0.1 µM) | pIC50 (second compound 0.316 µM) | pIC50 (second compound 1 µM) | pIC50 (second compound 3.16 µM) | pIC50 (second compound 10 µM)
active: viability, T/C [3] 6.37% | viability, T/C [4] 6.45% | viability, T/C [5] 0.17% | viability, T/C [6] 0.08% | viability, T/C [9] 6.15% | viability, T/C [10] 6.73% | viability, T/C [11] 0.15% | viability, T/C [12] 0.08% | viability, T/C [15] 6.26% | viability, T/C [16] 5.85% | viability, T/C [17] 0.15% | viability, T/C [18] 0.1% | viability, T/C [21] 7.08% | viability, T/C [22] 7.15% | viability, T/C [23] 0.24% | viability, T/C [24] 0.08% | viability, T/C [27] 8.28% | viability, T/C [28] 6.85% | viability, T/C [29] 0.21% | viability, T/C [30] 0.08% | viability, T/C [31] 7.11% | viability, T/C [32] 4.48% | viability, T/C [33] 5.08% | viability, T/C [34] 6.28% | viability, T/C [35] 0.12% | viability, T/C [36] 0.08%
